Laboratory results reported in the supplement of paper PMC10307832.

Key:
Assay in all cases: relative viability (nuclei count vs DMSO), 5 days (fraction); higher = more cells survive
[1] = compound: C1CC2=C(C1)C=C(C=C2)OC3=NC(=C4C(=N3)N(C=N4)CC5=CC=C(C=C5)C6=CC=CC=C6)N[C@@H](CC7=CC=CC=C7)CO [QS11] + CC(=O)c1c(C)c2cnc(Nc3ccc(N4CCNCC4)cn3)nc2n(C2CCCC2)c1=O [Palbociclib] (partner 0.5 µM)
Outline: (§1)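 Lung cancer cell lines in 1536-well plates got either a single drug or a fixed anchor-drug dose together with five library-drug doses (not always all listed) in √10 steps, by pin tool, on the day after seeding. Nuclei were counted after 5 days, and relative viability is the treated-to-vehicle ratio of nuclei counts. Values are medians of duplicate plates.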

[2] = compound: C1CC2=C(C1)C=C(C=C2)OC3=NC(=C4C(=N3)N(C=N4)CC5=CC=C(C=C5)C6=CC=CC=C6)N[C@@H](CC7=CC=CC=C7)CO [QS11] + O=C(c1cc(Cc2n[nH]c(=O)c3ccccc23)ccc1F)N1CCN(C(=O)C2CC2)CC1 [Olaparib] (partner 8 µM)
Outline: as §1

[3] = compound: C[As](C)SC[C@H](NC(=O)CC[C@H](N)C(=O)O)C(=O)NCC(=O)O [Darinaparsin] + NC(=O)Nc1cc(-c2cccc(F)c2)sc1C(=O)N[C@H]1CCCNC1 [AZD7762] (partner 0.2 µM)
Outline: as §1

[4] = compound: C[As](C)SC[C@H](NC(=O)CC[C@H](N)C(=O)O)C(=O)NCC(=O)O [Darinaparsin] + CC1(C)CCC(c2ccc(Cl)cc2)=C(CN2CCN(c3ccc(C(=O)NS(=O)(=O)c4ccc(N[C@H](CCN5CCOCC5)CSc5ccccc5)c(S(=O)(=O)C(F)(F)F)c4)cc3)CC2)C1 [Navitoclax] (partner 0.5 µM)
Outline: as §1

Cell Line | relative viability ([1]; first compound 0.08 µM) | relative viability ([1]; first compound 0.253 µM) | relative viability ([1]; first compound 0.8 µM) | relative viability ([1]; first compound 2.53 µM) | relative viability ([1]; first compound 8 µM) | relative viability ([2]; first compound 0.08 µM) | relative viability ([2]; first compound 0.253 µM) | relative viability ([2]; first compound 0.8 µM) | relative viability ([2]; first compound 2.53 µM) | relative viability ([2]; first compound 8 µM) | relative viability ([3]; first compound 0.08 µM) | relative viability ([3]; first compound 2.53 µM) | relative viability ([3]; first compound 8 µM) | relative viability ([4]; first compound 0.08 µM) | relative viability ([4]; first compound 0.8 µM) | relative viability ([4]; first compound 2.53 µM) | relative viability ([4]; first compound 8 µM) | relative viability ([3]; first compound 0.8 µM)
SW 900 | 0.588 | 0.593 | 0.456 | 0.481 | 0.425 | 0.941 | 1.03 | 0.615 | 0.739 | 0.511 | 0.644 | 0.549 | 0.6 |  |  |  |  | 
EBC-1 |  |  |  |  |  | 0.758 | 0.813 | 0.675 | 0.644 | 0.68 |  |  |  | 0.4 | 0.351 | 0.375 | 0.352 | 
NCI-H661 | 0.379 | 0.374 | 0.332 | 0.402 | 0.34 | 0.708 | 0.791 | 0.637 | 0.745 | 0.71 |  |  |  |  |  |  |  | 
SK-LU-1 | 0.345 | 0.419 | 0.336 | 0.365 | 0.376 | 0.354 | 0.442 | 0.466 | 0.356 | 0.452 |  |  |  | 0.986 | 0.807 | 0.671 | 1.02 | 
NCI-H1299 |  |  |  |  |  | 0.955 | 1.03 | 0.848 | 0.928 | 0.793 |  |  |  | 1.03 | 1.08 | 1.04 | 1.1 | 
A549 |  |  |  |  |  | 0.197 | 0.339 | 0.37 | 0.284 | 0.574 |  |  |  | 1.42 | 1.29 | 1.16 | 1.33 | 
IA-LM |  |  |  |  |  | 1 | 0.924 | 0.706 | 0.741 | 0.78 |  |  |  | 1.15 | 0.974 | 0.969 | 0.739 | 
Calu-6 |  |  |  |  |  | 0.626 | 0.613 | 0.603 | 0.638 | 0.59 |  |  |  | 1.13 | 0.921 | 0.752 | 0.745 | 
NCI-H1648 | 0.279 | 0.265 | 0.331 | 0.294 | 0.294 | 0.812 | 0.413 | 0.727 | 0.77 | 1.09 |  |  | 0.691 |  |  |  |  | 0.65
NCI-H1650 | 0.354 | 0.251 | 0.271 | 0.355 | 0.245 | 0.825 | 0.816 | 0.719 | 0.686 | 0.898 |  |  |  | 1.7 | 1.17 | 1.14 | 1.28 | 
NCI-H1703 |  |  |  |  |  | 0.411 | 0.363 | 0.597 | 0.501 | 0.551 | 0.199 |  | 0.132 | 1.63 | 1.27 | 1.32 | 0.926 | 0.186
COR-L23 | 0.319 | 0.298 | 0.274 | 0.196 | 0.181 | 0.302 | 0.322 | 0.303 | 0.271 | 0.288 |  |  |  | 1.38 | 1.12 | 0.945 | 1.16 | 
